pIC50: −log10 of the molar value.
Tests used:
B16 cell line = assay: In vitro antiproliferative activity, MTT assay, B16; assay type: cell-based; conditions: Mus musculus, 48 h
Experimental: (§1) HCT116, MCF-7 and B16 cell lines were plated on 96-well plates at a density of 5000 per well and incubated overnight. […] After 48 h, 0.5% MTT (Amresco, Solon, OH, USA) solution was added to each well, and further incubation for 4 h, then cells were centrifuged at 2500 rpm for 15 min and removed from the culture medium. And add 150 μL DMSO to dissolve the formazan. After mixing for 5 min, optical density was detected at 570 nm on a microplate reader (Thermo, Waltham, MA, USA).

EGFR = EGFR (Homo sapiens, UniProt P00533); assay: EGFR inhibitory assay (caliper mobility shift assay)
Experimental: (§3) Each of these compounds was dissolved in DMSO at 10 mM, diluted to 50× of the final desired highest inhibitor concentration in reaction by 100% DMSO, and 100 μL of each dilution was added to one well on 96-well storage plate, and diluted by transferring 10 μL to 90 μL of 100% DMSO in the next well. Besides, 100 μL of 100% DMSO was added to two empty wells for no compound control and no enzyme control in the same 96-well plate respectively. The plate was marked as source plate. 10 μL of each compound was transferred from the source plate to a new 96-well plate, which was marked as the intermediate plate. Next, 90 μL of 1× kinase base buffer was added to each well of the intermediate plate, and mixed by shaking vigorously for 10 min. A total of 5 μL of each well from the 96-well intermediate plate was transferred to a 384-well plate in duplicate.
(§4) Kinase reaction: kinase in 1× kinase base buffer, FAM-labeled peptide and ATP in the 1× kinase base buffer were added, then 10 μL of 2.5× enzyme solution was added to each well of the 384-well assay plate. After incubating at room temperature for 10 min, 10 μL of 2.5× peptide solution was added to each well of the 384-well assay plate. […] Finally, the kinase reactions were quenched with 25 μL of EDTA and the plates were washed. The dates were collected and converted with the caliper program.

MCF-7 cell line = assay: In vitro antiproliferative activity, MTT assay, MCF-7; assay type: cell-based; conditions: Homo sapiens, MCF7, 48 h
Experimental: as §1

VEGFR-2 = VEGFR-2 (Homo sapiens, UniProt P35968); assay: VEGFR-2 inhibitory assay (caliper mobility shift assay)
Experimental: as §3, §4

HCT116 cell line = assay: In vitro antiproliferative activity, MTT assay, HCT116; assay type: cell-based; conditions: Homo sapiens, HCT-116, 48 h
Experimental: as §1

B16 melanoma xenograft = assay: In vivo antitumor activity, B16 melanoma xenograft model; conditions: 90 mg/kg for 14 days (text: orally; table footnote: i.p.), C57BL/6J mice
Experimental: (§2) Male C57BL/6J mice were employed to establish the xenograft tumor model by subcutaneous injection (S.C.) of 6 × 10^6 B16 cells. […] In the end of treatment, the mice were sacrificed and the tumor were peeled off and weighted. The inhibition rate of tumor growth was calculated. All animal protocols were conformed to the Guidelines for the Care and Use of Laboratory Animals approved by the Animal Care and Use Committee of Yantai University.

[1] = Body weight in B16 melanoma xenograft model; assay type: in vivo; conditions: B16 tumor-bearing C57BL/6J mice; for Body Weight End: 90 mg/kg for 14 days, end of treatment; for Body Weight Initial: 90 mg/kg, before treatment
Experimental: as §2

Sequence of EGFR (P00533 25-1210): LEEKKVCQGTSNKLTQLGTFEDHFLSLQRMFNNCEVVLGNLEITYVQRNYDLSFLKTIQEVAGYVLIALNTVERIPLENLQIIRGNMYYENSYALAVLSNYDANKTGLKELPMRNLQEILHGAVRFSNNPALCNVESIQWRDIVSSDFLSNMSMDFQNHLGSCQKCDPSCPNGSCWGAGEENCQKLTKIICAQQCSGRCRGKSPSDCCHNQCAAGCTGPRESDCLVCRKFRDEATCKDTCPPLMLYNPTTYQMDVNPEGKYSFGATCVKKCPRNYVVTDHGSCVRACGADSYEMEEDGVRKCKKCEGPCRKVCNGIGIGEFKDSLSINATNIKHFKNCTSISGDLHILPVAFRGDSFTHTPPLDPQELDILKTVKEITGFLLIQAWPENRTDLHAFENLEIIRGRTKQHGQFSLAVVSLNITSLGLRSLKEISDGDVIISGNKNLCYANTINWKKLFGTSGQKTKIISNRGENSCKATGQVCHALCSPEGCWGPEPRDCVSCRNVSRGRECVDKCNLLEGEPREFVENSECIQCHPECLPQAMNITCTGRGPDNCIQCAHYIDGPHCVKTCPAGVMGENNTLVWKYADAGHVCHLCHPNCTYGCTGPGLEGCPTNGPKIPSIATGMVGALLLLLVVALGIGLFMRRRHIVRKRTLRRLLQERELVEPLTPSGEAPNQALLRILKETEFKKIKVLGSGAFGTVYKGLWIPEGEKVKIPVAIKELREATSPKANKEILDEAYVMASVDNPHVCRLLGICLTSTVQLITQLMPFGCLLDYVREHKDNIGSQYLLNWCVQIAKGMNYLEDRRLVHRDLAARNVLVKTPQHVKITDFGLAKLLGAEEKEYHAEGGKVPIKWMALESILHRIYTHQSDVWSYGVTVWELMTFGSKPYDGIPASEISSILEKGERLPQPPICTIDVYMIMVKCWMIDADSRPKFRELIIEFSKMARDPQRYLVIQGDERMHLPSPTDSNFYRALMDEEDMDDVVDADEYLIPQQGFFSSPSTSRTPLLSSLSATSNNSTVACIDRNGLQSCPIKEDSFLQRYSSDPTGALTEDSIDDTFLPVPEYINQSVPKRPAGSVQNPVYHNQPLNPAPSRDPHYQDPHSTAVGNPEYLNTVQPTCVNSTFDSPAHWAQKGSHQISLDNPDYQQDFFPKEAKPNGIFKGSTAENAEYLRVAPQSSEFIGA
Sequence of VEGFR-2 (P35968 20-1356): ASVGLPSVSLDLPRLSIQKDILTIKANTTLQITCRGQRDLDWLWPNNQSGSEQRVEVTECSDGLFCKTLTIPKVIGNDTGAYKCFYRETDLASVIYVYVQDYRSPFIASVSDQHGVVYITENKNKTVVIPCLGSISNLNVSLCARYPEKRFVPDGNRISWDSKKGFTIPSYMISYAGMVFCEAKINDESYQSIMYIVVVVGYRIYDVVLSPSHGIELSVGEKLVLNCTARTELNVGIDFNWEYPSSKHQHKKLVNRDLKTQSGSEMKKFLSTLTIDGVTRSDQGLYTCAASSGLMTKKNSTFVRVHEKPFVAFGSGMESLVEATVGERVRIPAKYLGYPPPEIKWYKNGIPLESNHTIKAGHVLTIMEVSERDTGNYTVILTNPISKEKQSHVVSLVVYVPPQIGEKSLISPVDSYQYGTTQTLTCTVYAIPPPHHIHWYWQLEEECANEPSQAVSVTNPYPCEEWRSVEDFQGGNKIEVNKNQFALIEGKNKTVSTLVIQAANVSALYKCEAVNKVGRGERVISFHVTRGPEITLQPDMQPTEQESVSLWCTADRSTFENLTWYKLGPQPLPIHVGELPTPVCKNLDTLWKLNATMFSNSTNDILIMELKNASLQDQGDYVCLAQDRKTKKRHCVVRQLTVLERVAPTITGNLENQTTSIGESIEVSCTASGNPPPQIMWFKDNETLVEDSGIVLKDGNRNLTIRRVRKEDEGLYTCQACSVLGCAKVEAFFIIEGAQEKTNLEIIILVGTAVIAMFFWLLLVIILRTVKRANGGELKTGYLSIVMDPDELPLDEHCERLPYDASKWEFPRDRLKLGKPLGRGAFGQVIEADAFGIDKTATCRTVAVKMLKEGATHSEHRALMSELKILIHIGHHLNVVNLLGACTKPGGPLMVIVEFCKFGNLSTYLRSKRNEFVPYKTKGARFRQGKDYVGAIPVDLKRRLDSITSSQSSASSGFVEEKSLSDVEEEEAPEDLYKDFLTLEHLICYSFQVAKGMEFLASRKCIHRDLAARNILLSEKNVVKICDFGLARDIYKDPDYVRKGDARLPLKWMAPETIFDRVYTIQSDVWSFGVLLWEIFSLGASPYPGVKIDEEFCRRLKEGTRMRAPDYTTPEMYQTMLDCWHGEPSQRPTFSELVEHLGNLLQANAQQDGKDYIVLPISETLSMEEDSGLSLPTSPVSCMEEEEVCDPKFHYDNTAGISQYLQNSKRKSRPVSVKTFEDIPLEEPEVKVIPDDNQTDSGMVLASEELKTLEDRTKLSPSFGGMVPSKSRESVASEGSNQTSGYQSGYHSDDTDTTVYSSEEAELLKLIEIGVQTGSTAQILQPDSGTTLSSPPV

melting point | pIC50 (B16 cell line) | pIC50 (EGFR) | pIC50 (MCF-7 cell line) | pIC50 (VEGFR-2) | pIC50 (HCT116 cell line) | Compound | Inhibition Rate of tumor growth (B16 melanoma xenograft) | Tumor Weight (B16 melanoma xenograft) | Body Weight End [1] | Body Weight Initial [1] | Inhibition Rate of tumor growth (B16 melanoma xenograft; listed as Sorafenib)
122.8 to 125.6 °C | 5.07 | – | 4.73 | – | 4.82 | COc1cc2ncnc(Oc3cccc(NC(=S)Nc4cc(C(F)(F)F)cc(C(F)(F)F)c4)c3)c2cc1OC [Compound 10d, 1-(3,5-Ditrifluoromethylphenyl)-3-[3-(6,7-dimethoxyquinazolin-4-yloxy)phenyl]thiourea] | – | – | – | – | –
147.5 to 149.6 °C | 4.83 | 6.85 | 4.88 | 6.46 | 4.92 | COc1cc2ncnc(Oc3cccc(NC(=S)Nc4cccc(C(F)(F)F)c4)c3)c2cc1OC [Compound 10e, 1-(3-Trifluoromethylphenyl)-3-[3-(6,7-dimethoxyquinazolin-4-yloxy)phenyl]thiourea] | – | – | – | – | –
198.3 to 201 °C | 4.56 | 5.38 | 4.65 | < 5.00 | < 4.00 | COc1cc2ncnc(Oc3cccc(NC(=S)Nc4ccc(Cl)cc4)c3)c2cc1OC [Compound 10i, 1-(4-Chlorophenyl)-3-[3-(6,7-dimethoxyquinazolin-4-yloxy)phenyl]thiourea] | – | – | – | – | –
128.4 to 130 °C | 5.03 | – | 4.60 | – | 5.06 | COc1cc2ncnc(Sc3cccc(NC(=S)Nc4ccc(F)c(C(F)(F)F)c4)c3)c2cc1OC [Compound 10l, 1-[3-(6,7-Dimethoxyquinazolin-4-ylsulfanyl)phenyl]-3-(4-fluoro-3-trifluoromethylphenyl) thiourea] | – | – | – | – | –
138 to 139.3 °C | 4.17 | < 5.00 | 4.49 | < 5.00 | 4.19 | COc1cc2ncnc(Sc3cccc(NC(=S)Nc4ccc(OC(F)(F)F)cc4)c3)c2cc1OC [Compound 10n, 1-(4-Trifluoromethoxyphenyl)-3-[3-(6,7-dimethoxyquinazolin-4-ylsulfanyl)phenyl]thiourea] | – | – | – | – | –
168.2 to 171 °C | 4.91 | 7.70 | 4.72 | 7.05 | 5.02 | COc1cc2ncnc(Sc3cccc(NC(=S)Nc4cc(C(F)(F)F)cc(C(F)(F)F)c4)c3)c2cc1OC [Compound 10o, 1-(3,5-Ditrifluoromethylphenyl)-3-[3-(6,7-dimethoxyquinazolin-4-ylsulfanyl)phenyl]thiourea] | – | – | – | – | –
127.5 to 131 °C | 4.89 | 7.15 | 4.68 | 6.57 | 5.04 | COc1cc2ncnc(Sc3cccc(NC(=S)Nc4cccc(C(F)(F)F)c4)c3)c2cc1OC [Compound 10p, 1-(3-Trifluoromethylphenyl)-3-[3-(6,7-dimethoxyquinazolin-4-ylsulfanyl)phenyl]thiourea] | – | – | – | – | –
128.2 to 130.4 °C | 4.38 | 5.50 | 4.52 | 5.29 | < 4.00 | COc1cc2ncnc(Sc3cccc(NC(=S)Nc4ccc(F)c(F)c4)c3)c2cc1OC [Compound 10s, 1-(3,4-Difluorophenyl)-3-[3-(6,7-dimethoxyquinazolin-4-ylsulfanyl)phenyl]thiourea] | – | – | – | – | –
152 to 153.2 °C | 4.21 | 5.27 | 4.67 | 5.18 | 4.56 | COc1cc2ncnc(Sc3cccc(NC(=S)Nc4ccc(F)cc4)c3)c2cc1OC [Compound 10u, 1-(4-Fluorophenyl)-3-[3-(6,7-dimethoxyquinazolin-4-ylsulfanyl)phenyl]thiourea] | – | – | – | – | –
163.1 to 165 °C | < 4.00 | < 5.00 | 4.54 | < 5.00 | 4.08 | COc1cc2ncnc(Sc3cccc(NC(=S)Nc4ccc(C)cc4)c3)c2cc1OC [Compound 10v, 1-p-tolyl-3-[3-(6,7-dimethoxyquinazolin-4-ylsulfanyl)phenyl]thiourea] | – | – | – | – | –
– | 5.03 | – | 4.75 | – | 4.98 | CNC(=O)c1cc(Oc2ccc(NC(=O)Nc3ccc(Cl)c(C(F)(F)F)c3)cc2)ccn1 [sorafenib, reference compound] | 31.25% | 0.88 ± 0.46 g | 21.3 ± 2.4 g | 20.7 ± 2.1 g | 31.25%

Second part, the compound before the results:

Compound | melting point | pIC50 (B16 cell line) | pIC50 (EGFR) | pIC50 (MCF-7 cell line) | pIC50 (VEGFR-2) | pIC50 (HCT116 cell line) | Inhibition Rate of tumor growth (B16 melanoma xenograft) | Tumor Weight (B16 melanoma xenograft) | Body Weight End [1] | Body Weight Initial [1] | Inhibition Rate of tumor growth (B16 melanoma xenograft; listed as Sorafenib)
COc1cc2ncnc(Oc3cccc(NC(=S)Nc4ccc(F)c(C(F)(F)F)c4)c3)c2cc1OC [Compound 10a, 1-[3-(6,7-Dimethoxyquinazolin-4-yloxy)phenyl]-3-(4-fluoro-3-trifluoromethylphenyl)thiourea] | 130.5 to 133 °C | 4.77 | 7.40 | 4.42 | 6.72 | 4.43 | – | – | – | – | –
COc1cc2ncnc(Oc3cccc(NC(=S)Nc4ccc(Cl)c(C(F)(F)F)c4)c3)c2cc1OC [Compound 10b, 1-(4-Chloro-3-trifluoromethylphenyl)-3-[3-(6,7-dimethoxyquinazolin-4-yloxy)phenyl]thiourea] | – | 5.21 | 7.70 | 4.75 | 7.30 | 5.04 | 49.22% | 0.65 ± 0.22 g | 19.5 ± 3.0 g | 18.9 ± 1.8 g | –
COc1cc2ncnc(Oc3cccc(NC(=S)Nc4ccc(Br)c(C(F)(F)F)c4)c3)c2cc1OC [Compound 10c, 1-(4-Bromo-3-trifluoromethylphenyl)-3-[3-(6,7-dimethoxyquinazolin-4-yloxy)phenyl]thiourea] | – | 5.01 | 7.30 | 4.65 | 6.74 | 5.00 | – | – | – | – | –
COc1cc2ncnc(Oc3cccc(NC(=S)Nc4ccc(OC(F)(F)F)cc4)c3)c2cc1OC [Compound 10f, 1-(4-Trifluoromethoxyphenyl)-3-[3-(6,7-dimethoxyquinazolin-4-yloxy)phenyl]thiourea] | 171.5 to 174 °C | 4.27 | < 5.00 | 4.73 | < 5.00 | 4.23 | – | – | – | – | –
COc1cc2ncnc(Oc3cccc(NC(=S)Nc4ccc(Cl)cc4Cl)c3)c2cc1OC [Compound 10g, 1-(2,4-Dichlorophenyl)-3-[3-(6,7-dimethoxyquinazolin-4-yloxy)phenyl]thiourea] | 187.4 to 188.2 °C | 4.61 | 5.11 | 4.77 | < 5.00 | 4.70 | – | – | – | – | –
COc1cc2ncnc(Oc3cccc(NC(=S)Nc4ccc(F)c(F)c4)c3)c2cc1OC [Compound 10h, 1-(3,4-Difluorophenyl)-3-[3-(6,7-dimethoxyquinazolin-4-yloxy)phenyl]thiourea] | 181.3 to 184.1 °C | 4.71 | 5.31 | 4.80 | 5.15 | 4.31 | – | – | – | – | –
COc1cc2ncnc(Oc3cccc(NC(=S)Nc4ccc(F)cc4)c3)c2cc1OC [Compound 10j, 1-(4-Fluorophenyl)-3-[3-(6,7-dimethoxyquinazolin-4-yloxy)phenyl]thiourea] | 168.5 to 170 °C | 4.47 | 5.23 | 4.63 | 5.15 | 4.05 | – | – | – | – | –
COc1cc2ncnc(Oc3cccc(NC(=S)Nc4ccc(C)cc4)c3)c2cc1OC [Compound 10k, 1-p-tolyl-3-[3-(6,7-dimethoxyquinazolin-4-yloxy)phenyl]thiourea] | 138.4 to 140 °C | < 4.00 | < 5.00 | 4.58 | < 5.00 | < 4.00 | – | – | – | – | –
COc1cc2ncnc(Sc3cccc(NC(=S)Nc4ccc(Cl)c(C(F)(F)F)c4)c3)c2cc1OC [Compound 10m, 1-(4-Chloro-3-trifluoromethylphenyl)-3-[3-(6,7-dimethoxyquinazolin-4-ylsulfanyl)phenyl] thiourea] | 162.2 to 164 °C | 5.10 | 8.00 | 4.68 | 7.15 | 5.09 | 20.31% | 1.02 ± 0.36 g | 20.9 ± 1.6 g | 19.2 ± 2.1 g | –
COc1cc2ncnc(Sc3cccc(NC(=S)Nc4ccc(Cl)cc4Cl)c3)c2cc1OC [Compound 10r, 1-(2,4-Dichlorophenyl)-3-[3-(6,7-dimethoxyquinazolin-4-ylsulfanyl)phenyl]thiourea] | 172.4 to 174 °C | 4.56 | 5.45 | 4.83 | < 5.00 | 4.20 | – | – | – | – | –
COc1cc2ncnc(Sc3cccc(NC(=S)Nc4ccc(Cl)cc4)c3)c2cc1OC [Compound 10t, 1-(4-Chlorophenyl)-3-[3-(6,7-dimethoxyquinazolin-4-ylsulfanyl)phenyl]thiourea] | 124.8 to 126.1 °C | 4.24 | 5.54 | 4.58 | 5.16 | 4.64 | – | – | – | – | –

Source: PMC5943947 (Molecules : A Journal of Synthetic Chemistry and Natural …, 2017)
